{"source": "patent US11717498B2", "about": "“Methods of treatment using amphetamine controlled release, prodrug, and abuse deterrent dosage forms” (CHEMAPOTHECA, LLC, priority 2013, dated 2023)", "origin": "cited, not measured here", "conditions": "l-form versus d-form"}
{"smiles": "CC(C)NC[C@H](O)COc1cccc2ccccc12", "note": "[l-form of propranolol, propranolol]", "values": [{"measurement": "potency relative to the d-form", "value": "about 100 times"}]}
